These compounds were tested against p300 HAT domain (residues 1287-1666) (Homo sapiens (Human), UniProt Q09472) (assay: p300 HAT SPA assay (scintillation proximity assay, acetylation of biotinylated H3(1-21) peptide)). Conditions: average of at least 2 replicate titrations.
Type: biochemical
Summary of the method: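 Scintillation proximity readout of acetylated biotin-H3(1-21) captured on streptavidin plates after 1.5 hr at RT; enzyme was Ni2+/anion-exchange-purified HAT domain in 20 mM Hepes pH 7.5. Inhibitor IC50s calculated from the data.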

Chain of p300 HAT domain (residues 1287-1666) (Q09472 1287-1666): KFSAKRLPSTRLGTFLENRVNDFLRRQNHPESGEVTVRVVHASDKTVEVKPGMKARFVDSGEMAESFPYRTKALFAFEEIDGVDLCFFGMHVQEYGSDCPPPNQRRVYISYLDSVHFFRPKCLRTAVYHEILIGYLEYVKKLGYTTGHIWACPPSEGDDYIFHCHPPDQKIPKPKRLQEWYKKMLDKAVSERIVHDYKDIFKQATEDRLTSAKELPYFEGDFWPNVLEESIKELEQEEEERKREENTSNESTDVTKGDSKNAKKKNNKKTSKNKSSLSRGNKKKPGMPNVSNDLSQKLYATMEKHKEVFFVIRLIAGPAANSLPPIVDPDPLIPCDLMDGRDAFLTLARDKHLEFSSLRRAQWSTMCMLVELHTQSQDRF

SMILES | IC50 [nM]
NS(=O)(=O)c1ccc(CCN[C@H](C(=O)N2CCc3ccccc32)c2ccccc2)cc1 (single isomer, unassigned) [153 Isomer 2] | 1930
CC(CNC(C(=O)Nc1ccc(N2CCN(C)C(=O)C2)cn1)c1ccccc1)c1ccc(C#N)cc1 (single isomer, unassigned) [101 Isomer 3] | 355
CC1C(=O)N(C)CCN1c1ccc(NC(=O)C(NC[C@@H](C)c2ccc(C#N)cc2)c2ccccc2)nc1 (single isomer, unassigned) [126 Isomer 2] | > 2000
CC(Cc1ccc(Cl)cc1)NC(C(=O)Nc1ccc(-c2cnn(C)c2)cc1)c1ccccc1 (single isomer, unassigned) [3 Isomer 4] | 3890
CN1CCN(c2ccc(NC(=O)C(NCCc3ccc(Cl)cc3)c3ccccc3)nc2)CC1 (single isomer, unassigned) [69 Isomer 1] | 35.8
CC(CNC(C(=O)Nc1ccc(N2CCN(C)C(=O)C2)cn1)c1cnn(C)c1)c1ccc(C#N)cc1 (single isomer, unassigned) [136 Isomer 4] | > 2000
Cc1nc(-c2ccc(NC(=O)C(NC[C@@H](C)c3ccc(C#N)cc3)c3ccccc3)nc2)no1 (single isomer, unassigned) [107 Isomer 2] | 72.3
CC(CNC(C(=O)Nc1ccc(-c2cnn(C(F)F)c2)cn1)c1cnn(C)c1)c1ccc(C#N)cc1 (single isomer, unassigned) [128 Isomer 2] | > 2000
CC(=O)N1CCN(c2ccc(NC(=O)C(NC[C@@H](C)c3ccc(C#N)cc3)c3cccc(F)c3)nc2)CC1 (single isomer, unassigned) [135 Isomer 1] | 855
COC1CN(c2ccc(NC(=O)C(NCC(C)c3ccc(C#N)cc3)c3ccccc3)nc2)C1 (single isomer, unassigned) [32 Isomer 3] | > 2000
O=C(Nc1ccc(-c2cccnn2)cc1)C(NCCc1ccc(Cl)cc1)c1ccccc1 (single isomer, unassigned) [10 Isomer 2] | 580
C[C@H](CNC(C(=O)Nc1ccc(-c2cnn(CC(=O)N(C)C)c2)cn1)c1ccccc1)c1ccc(C#N)cc1 (single isomer, unassigned) [84 Isomer 1] | 395
CC(CNC(C(=O)Nc1ccc(-c2cnn(C)n2)cn1)c1ccccc1)c1ccc(C#N)cc1 (single isomer, unassigned) [98 Isomer 4] | 1460
COC1CN(c2ccc(NC(=O)C(NCC(C)c3ccc(C#N)cc3)c3ccccc3)nc2)C1 (single isomer, unassigned) [32 Isomer 4] | > 2000
CC(CNC(C(=O)Nc1ccc(-n2cnc(C(C)(C)C)c2)cn1)c1ccccc1)c1ccc(C#N)cc1 (single isomer, unassigned) [59 Isomer 3] | > 2000
CN1CCN(c2ccc(NC(=O)[C@@H](NCCc3ccc(Cl)cc3)c3ccccc3)cc2)CC1 (single isomer, unassigned) [17 Isomer 2] | > 5000
N#Cc1ccc(CCNC(C(=O)Nc2ccc(N3CCC4(COC4)C3)cn2)c2ccccc2)cc1 (single isomer, unassigned) [96 Isomer 2] | > 2000
CC(CNC(C(=O)Nc1ccc(-c2cn(C)nn2)cn1)c1ccccc1)c1ccc(C#N)cc1 (single isomer, unassigned) [100 Isomer 1] | 668
N#Cc1ccc(CCNC(C(=O)Nc2ccc(N3CCC(F)(F)CC3)cn2)c2ccccc2)cc1 (single isomer, unassigned) [38 Isomer 2] | > 2000
N#Cc1ccc(CCNC(C(=O)Nc2ccc(N3CCN(CC(F)(F)F)CC3)cn2)c2ccccc2)cc1 (single isomer, unassigned) [40 Isomer 2] | > 5000

SMILES | IC50 [nM]
CCN1CCN(c2ccc(NC(=O)C(NCCc3ccc(C#N)cc3)c3ccccc3)nc2)C1=O (single isomer, unassigned) [76 Isomer 2] | > 2000
CC(CNC(C(=O)Nc1ccc(-c2cnn(CC(F)(F)F)c2)cn1)c1ccccc1)c1ccc(C#N)cc1 (single isomer, unassigned) [83 Isomer 1] | > 2000
CC(CNC(C(=O)Nc1ccc(-c2cnn(C)n2)cn1)c1ccccc1)c1ccc(C#N)cc1 (single isomer, unassigned) [98 Isomer 1] | 571
COC1CN(c2ccc(NC(=O)C(NCC(C)c3ccc(C#N)cc3)c3ccccc3)nc2)C1 (single isomer, unassigned) [32 Isomer 1] | > 2000
CCN1CCN(c2ccc(NC(=O)C(NC[C@@H](C)c3ccc(C#N)cc3)c3ccccc3)nc2)CC1=O (single isomer, unassigned) [102 Isomer 1] | 30.8
Cc1cnc(-c2ccc(NC(=O)C(NCCc3ccc(C#N)cc3)c3ccccc3)cc2)[nH]1 (single isomer, unassigned) [11 Isomer 2] | > 5000
O=C(Nc1ccc(-c2cccnn2)cc1)C(NCCc1ccc(Cl)cc1)c1ccccc1 (single isomer, unassigned) [10 Isomer 1] | > 5000
Cc1n[nH]c(C)c1-c1ccc(NC(=O)C(NC[C@@H](C)c2ccc(C#N)cc2)c2ccccc2)nc1 (single isomer, unassigned) [133 Isomer 1] | 1230
CCCCCCc1cccc(C(NCCc2ccc(C#N)cc2)C(=O)Nc2ccc(-c3cnn(C)c3)cn2)c1 (single isomer, unassigned) [118 Isomer 1] | > 2000
CNC(=O)Cn1cc(-c2ccc(NC(=O)C(NC[C@@H](C)c3ccc(C#N)cc3)c3ccccc3)nc2)cn1 (single isomer, unassigned) [146 Isomer 2] | 7.76
CNC(=O)Cn1cc(-c2ccc(NC(=O)C(NC[C@@H](C)c3ccc(C#N)cc3)c3ccccc3)nc2)cn1 (single isomer, unassigned) [146 Isomer 1] | 993
CCN1CCN(c2ccc(NC(=O)C(NC[C@@H](C)c3ccc(C#N)cc3)c3ccccc3)nc2)CC1=O (single isomer, unassigned) [102 Isomer 2] | 1550
CC(CNC(C(=O)Nc1ccc(-c2cnn(C(C)(C)C)c2)cn1)c1ccccc1)c1ccc(C#N)cc1 (single isomer, unassigned) [54 Isomer 2] | 23.9
N#Cc1ccc(CCNC(C(=O)Nc2ccc(N3CCCC3)nc2)c2ccccc2)cc1 (single isomer, unassigned) [35 Isomer 1] | > 5000
CCCCCCc1cccc(C(NCCc2ccc(C#N)cc2)C(=O)Nc2ccc(-c3cnn(C)c3)cn2)c1 (single isomer, unassigned) [118 Isomer 2] | 1900
CC(CNC(C(=O)Nc1ccc(-c2cnn(C)c2)cc1)c1ccccc1)c1ccc(Cl)cc1 (single isomer, unassigned) [2 Isomer 3] | 2740
Cc1c(-c2ccc(NC(=O)C(NC[C@@H](C)c3ccc(C#N)cc3)c3ccccc3)nc2)cnn1C (single isomer, unassigned) [114 Isomer 1] | 528
Cc1ncn(-c2ccc(NC(=O)C(NCCc3ccc(C#N)cc3)c3ccccc3)nc2)n1 (single isomer, unassigned) [73 Isomer 1] | > 2000
CC(CNC(C(=O)Nc1ccc(-c2cnn(C(C)(C)C#N)c2)cn1)c1ccccc1)c1ccc(C#N)cc1 (single isomer, unassigned) [47 Isomer 3] | > 2000

Further lines, results first:

IC50 [nM] | SMILES
> 2000 | Cn1cc(-c2ccc(NC(=O)C(NCCc3ccc(C#N)cn3)c3ccccc3)nc2)cn1 (single isomer, unassigned) [142 Isomer 1]
> 60000 | Cn1cc(-c2ccnc(NC(=O)C(NCCc3ccc(C#N)cc3)c3ccccc3)c2)cn1 (single isomer, unassigned) [122 Isomer 1]
185 | Cn1cc(-c2cnc(NC(=O)C(NCCc3ccc(C#N)cc3)c3ccccc3)c(Cl)c2)cn1 (single isomer, unassigned) [43 Isomer 1]
1600 | CC(CNC(C(=O)Nc1ccc(-c2cnn(C)c2)cn1)c1ccccc1)c1ccc(C#N)cc1F (single isomer, unassigned) [90 Isomer 3]
> 5000 | Cn1cc(-c2cnc(NC(=O)C(NCCc3ccc(C#N)cc3)c3ccccc3)cn2)cn1 (single isomer, unassigned) [56 Isomer 2]
> 2000 | Cc1cc(C#N)nn1CCNC(C(=O)Nc1ccc(-c2cnn(C)c2)cn1)c1ccccc1 (single isomer, unassigned) [145 Isomer 2]
> 2000 | Cn1cc(-c2ccc(NC(=O)C(NCCc3ccc(C(F)(F)F)nc3)c3ccccc3)nc2)cn1 (single isomer, unassigned) [140 Isomer 2]
> 2000 | Cn1cc(-c2ccc(NC(=O)C(NCCc3ccc(C#N)cc3)c3ccc(C(F)(F)F)cc3)nc2)cn1 (single isomer, unassigned) [120 Isomer 1]
> 2000 | Cc1ccc(CCNC(C(=O)Nc2ccc(-c3cnn(C)c3)cn2)c2ccccc2)cn1 (single isomer, unassigned) [141 Isomer 2]
75.4 | C[C@H](CNC(C(=O)Nc1ccc(-c2cnn(C)c2)cn1)c1cncc(F)c1)c1ccc(C#N)cc1 (single isomer, unassigned) [129 Isomer 1]
> 2000 | CC(CNC(C(=O)Nc1ccc(-c2cnn(C)c2)cn1)c1ccccc1)c1ccc(C#N)cc1F (single isomer, unassigned) [90 Isomer 4]
169 | Cn1cc(-c2ccc(NC(=O)C(NCCc3c(F)cc(C#N)cc3F)c3ccccc3)nc2)cn1 (racemic) [86 racemic, (S)- and (R)-2-((4-cyano-2,6-difluorophenEthyl)amino)-N-(5-(1-methyl-1H-pyrazol-4-yl)pyridin-2-yl)-2-phenylacetamide]
48900 | Cn1cc(-c2ccnc(NC(=O)C(NCCc3ccc(C#N)cc3)c3ccccc3)c2)cn1 (single isomer, unassigned) [122 Isomer 2]
401 | CC(CNC(C(=O)Nc1ccc(-c2cnn(C)c2)cn1)c1ccccc1)c1ccc(C#N)c(F)c1 (single isomer, unassigned) [91 Isomer 4]
607 | COc1cc(-c2cnn(C)c2)ccc1NC(=O)C(NCCc1ccc(C#N)cc1)c1ccccc1 (single isomer, unassigned) [24 Isomer 2]
41.4 | Cn1cc(-c2ccc(NC(=O)C(NCCc3ccc(C#N)cc3C(F)(F)F)c3ccccc3)nc2)cn1 (single isomer, unassigned) [95 Isomer 1]
> 2000 | Cn1cc(-c2ccc(NC(=O)C(NCCc3ccc(C#N)cc3)c3cccc(C(F)(F)F)c3)nc2)cn1 (single isomer, unassigned) [117 Isomer 1]

Reference: patent publication US11274090B2, “P300/CBP HAT inhibitors” (Constellation Pharmaceuticals, Inc., priority 2018, dated 2022)
